Reference: patent US20040006070A1, “Intraspinal continuous infusion of midazolam hydrochloride for the treatment of pain” (priority 2002, published 2004)
Counter-ions that a name gives are not always drawn.

Test: Bloodwork: complete blood count, electrolytes, extended blood chemistry
Assay type: in vivo, sheep
Method: Indirect blood pressure, pulse recording, pain testing (mechanical stimulus device, cold and warm water baths see description in procedure) and weight were taken on days 1, 3, 7, 15, 22, 29, 36, and 43. Venous blood samples (15 ml drawn from the jugular vein with Vacutainer brand blood collection tubes) for complete blood count, electrolytes, and extended blood chemistry were drawn on days 1, 15, and 43 (mild procedure only light hand restraint necessary).

[1] = sheep #84 Roadrunner, 15 mg/day, Day 1
[2] = sheep #84 Roadrunner, 15 mg/day, Day 15
[3] = sheep #84 Roadrunner, 15 mg/day, Day 43

**Q.** Which results are given for `Cc1ncc2n1-c1ccc(Cl)cc1C(c1ccccc1F)=NC2` [Midazolam, midazolam hydrochloride]?
**A.** Total Bili [1]: 0.3 mg/dL; Total Prot [1]: 5.9 g/dL; WBC [1]: 5390 µL⁻¹; ALT [2]: 2 U/L; AST [2]: 60 U/L; Albumin [2]: 3.7 g/dL; Alk Phos [2]: 98 U/L; BUN [2]: 11 mg/dL; CPK [2]: 53 U/L; Cholesterol [2]: 56 mg/dL; Creatinine [2]: 1.3 mg/dL; Differential Count: Eosin [2]: 12%; Differential Count: Lymph [2]: 44%; Differential Count: Seg [2]: 44%; Gamma GT [2]: 62 U/L; Glucose [2]: 66 mg/dL; Hct [2]: 31.8%; Hgb [2]: 10.8 g/dL; K+ [2]: 4.8 mEq/l; MCH [2]: 10.8 pg; MCHC [2]: 34.0 g/dL; MCV [2]: 31.8 fL; Na+ [2]: 150 mEq/l; Phos [2]: 6.6 mg/dL; Platlet Count [2]: 848000 µL⁻¹; RBC [2]: 1e+07 µL⁻¹; Total Bili [2]: 0.1 mg/dL; Total Prot [2]: 6.4 g/dL; WBC [2]: 5130 µL⁻¹; ALT [3]: 7 U/L; AST [3]: 65 U/L; Albumin [3]: 3.54 g/dL; Alk Phos [3]: 143 U/L; BUN [3]: 11 mg/dL; CPK [3]: 102 U/L; Cholesterol [3]: 57 mg/dL; Creatinine [3]: 1.2 mg/dL; Differential Count: Atyp lym [3]: 1%; Differential Count: Eosin [3]: 2%; Differential Count: Lymph [3]: 67%; Differential Count: Mono [3]: 1%; Differential Count: Seg [3]: 29%; Gamma GT [3]: 56 U/L; Glucose [3]: 74 mg/dL; Hct [3]: 35.0%; Hgb [3]: 11.9 g/dL; K+ [3]: 4.6 mEq/l; MCH [3]: 11.8 pg; MCHC [3]: 34.0 g/dL; MCV [3]: 34.7 fL; Na+ [3]: 149 mEq/l; Phos [3]: 7.1 mg/dL; Platlet Count [3]: 727000 µL⁻¹; RBC [3]: 1.01e+07 µL⁻¹; Total Bili [3]: 0.1 mg/dL; Total Prot [3]: 6.0 g/dL; WBC [3]: 5150 µL⁻¹; ALT (sheep #85, 15 mg/day, Day 1): 7 U/L; AST (sheep #85, 15 mg/day, Day 1): 76 U/L; Alk Phos (sheep #85, 15 mg/day, Day 1): 50 U/L; BUN (sheep #85, 15 mg/day, Day 1): 10 mg/dL; CPK (sheep #85, 15 mg/day, Day 1): 99 U/L; Cholesterol (sheep #85, 15 mg/day, Day 1): 52 mg/dL; Differential Count: Baso (sheep #85, 15 mg/day, Day 1): 1%; Differential Count: Eosin (sheep #85, 15 mg/day, Day 1): 1%; Differential Count: Lymph (sheep #85, 15 mg/day, Day 1): 22%; Differential Count: Mono (sheep #85, 15 mg/day, Day 1): 1%; Differential Count: Seg (sheep #85, 15 mg/day, Day 1): 75%; Gamma GT (sheep #85, 15 mg/day, Day 1): 68 U/L; Glucose (sheep #85, 15 mg/day, Day 1): 75 mg/dL; Hct (sheep #85, 15 mg/day, Day 1): 28.0%; Hgb (sheep #85, 15 mg/day, Day 1): 9.2 g/dL; MCH (sheep #85, 15 mg/day, Day 1): 10.7 pg; MCHC (sheep #85, 15 mg/day, Day 1): 32.8 g/dL; MCV (sheep #85, 15 mg/day, Day 1): 32.7 fL; Na+ (sheep #85, 15 mg/day, Day 1): 149 mEq/l; Platlet Count (sheep #85, 15 mg/day, Day 1): 994000 µL⁻¹; RBC (sheep #85, 15 mg/day, Day 1): 8.57e+06 µL⁻¹; WBC (sheep #85, 15 mg/day, Day 1): 4780 µL⁻¹; Total Bili (sheep #85, 15 mg/day, Day 1, ref 0.14-0.32): 0.1 mg/dL; Creatinine (sheep #85, 15 mg/day, Day 1, ref 1-2.7): 1.4 mg/dL; Albumin (sheep #85, 15 mg/day, Day 1, ref 2.4-3): 3.4 g/dL; K+ (sheep #85, 15 mg/day, Day 1, ref 3.9-5.4): 4.7 mEq/l; Phos (sheep #85, 15 mg/day, Day 1, ref 5-7.3): 5.3 mg/dL; Total Prot (sheep #85, 15 mg/day, Day 1, ref 6-7.9): 6.1 g/dL; ALT (sheep #85, 15 mg/day, Day 15): 10 U/L; AST (sheep #85, 15 mg/day, Day 15): 56 U/L; Alk Phos (sheep #85, 15 mg/day, Day 15): 54 U/L; BUN (sheep #85, 15 mg/day, Day 15): 17 mg/dL; CPK (sheep #85, 15 mg/day, Day 15): 56 U/L; Cholesterol (sheep #85, 15 mg/day, Day 15): 58 mg/dL; Differential Count: Eosin (sheep #85, 15 mg/day, Day 15): 12%; Differential Count: Lymph (sheep #85, 15 mg/day, Day 15): 44%; Differential Count: Seg (sheep #85, 15 mg/day, Day 15): 44%; Gamma GT (sheep #85, 15 mg/day, Day 15): 54 U/L; Hct (sheep #85, 15 mg/day, Day 15): 31.8%; Hgb (sheep #85, 15 mg/day, Day 15): 10.8 g/dL; MCH (sheep #85, 15 mg/day, Day 15): 10.8 pg; MCHC (sheep #85, 15 mg/day, Day 15): 34.0 g/dL; MCV (sheep #85, 15 mg/day, Day 15): 31.8 fL; Na+ (sheep #85, 15 mg/day, Day 15): 148 mEq/l; Platlet Count (sheep #85, 15 mg/day, Day 15): 848000 µL⁻¹; RBC (sheep #85, 15 mg/day, Day 15): 1e+07 µL⁻¹; WBC (sheep #85, 15 mg/day, Day 15): 5130 µL⁻¹; Total Bili (sheep #85, 15 mg/day, Day 15, ref 0.14-0.32): 0.0 mg/dL; Creatinine (sheep #85, 15 mg/day, Day 15, ref 1-2.7): 1.2 mg/dL; Albumin (sheep #85, 15 mg/day, Day 15, ref 2.4-3): 2.8 g/dL; K+ (sheep #85, 15 mg/day, Day 15, ref 3.9-5.4): 5.0 mEq/l; Phos (sheep #85, 15 mg/day, Day 15, ref 5-7.3): 6.0 mg/dL; Total Prot (sheep #85, 15 mg/day, Day 15, ref 6-7.9): 5.4 g/dL; ALT (sheep #85, 15 mg/day, Day 43): 8 U/L; AST (sheep #85, 15 mg/day, Day 43): 59 U/L; Alk Phos (sheep #85, 15 mg/day, Day 43): 92 U/L; BUN (sheep #85, 15 mg/day, Day 43): 13 mg/dL; CPK (sheep #85, 15 mg/day, Day 43): 81 U/L; Cholesterol (sheep #85, 15 mg/day, Day 43): 72 mg/dL; Differential Count: Eosin (sheep #85, 15 mg/day, Day 43): 4%; Differential Count: Lymph (sheep #85, 15 mg/day, Day 43): 75%; Differential Count: Mono (sheep #85, 15 mg/day, Day 43): 3%; Differential Count: Seg (sheep #85, 15 mg/day, Day 43): 18%; Gamma GT (sheep #85, 15 mg/day, Day 43): 60 U/L; Glucose (sheep #85, 15 mg/day, Day 43): 76 mg/dL; Hct (sheep #85, 15 mg/day, Day 43): 34.7%; Hgb (sheep #85, 15 mg/day, Day 43): 11.9 g/dL; MCH (sheep #85, 15 mg/day, Day 43): 12.6 pg; MCHC (sheep #85, 15 mg/day, Day 43): 34.1 g/dL; MCV (sheep #85, 15 mg/day, Day 43): 36.8 fL; Na+ (sheep #85, 15 mg/day, Day 43): 148 mEq/l; Platlet Count (sheep #85, 15 mg/day, Day 43): 604000 µL⁻¹; RBC (sheep #85, 15 mg/day, Day 43): 9.44e+06 µL⁻¹; WBC (sheep #85, 15 mg/day, Day 43): 3130 µL⁻¹; Total Bili (sheep #85, 15 mg/day, Day 43, ref 0.14-0.32): 0.1 mg/dL; Creatinine (sheep #85, 15 mg/day, Day 43, ref 1-2.7): 1.3 mg/dL; Albumin (sheep #85, 15 mg/day, Day 43, ref 2.4-3): 3.6 g/dL; K+ (sheep #85, 15 mg/day, Day 43, ref 3.9-5.4): 4.9 mEq/l; Phos (sheep #85, 15 mg/day, Day 43, ref 5-7.3): 7.1 mg/dL; Total Prot (sheep #85, 15 mg/day, Day 43, ref 6-7.9): 6.4 g/dL; ALT (sheep #91, 15 mg/day, Day 1): 7 U/L; AST (sheep #91, 15 mg/day, Day 1): 61 U/L; Alk Phos (sheep #91, 15 mg/day, Day 1): 132 U/L; BUN (sheep #91, 15 mg/day, Day 1): 9 mg/dL; CPK (sheep #91, 15 mg/day, Day 1): 52 U/L; Cholesterol (sheep #91, 15 mg/day, Day 1): 47 mg/dL; Differential Count: Eosin (sheep #91, 15 mg/day, Day 1): 1%; Differential Count: Lymph (sheep #91, 15 mg/day, Day 1): 21%; Differential Count: Mono (sheep #91, 15 mg/day, Day 1): 2%; Differential Count: Seg (sheep #91, 15 mg/day, Day 1): 76%; Gamma GT (sheep #91, 15 mg/day, Day 1): 51 U/L
